# Laboratory results published in publication PMC3825534 (Journal of Cancer Research and Clinical Oncology, 2013).
# What was measured:
# [1] = system: colon cancer cell lines RKO and HCT116; assay: FMCA primary screening at 10 μM; type: cell-based, human; conditions: 10 μM drug concentration; both cell lines; hit criterion SI <40 %
# Protocol: For primary screening, the colon cancer cell lines HCT 116 and RKO, obtained from American Type Culture Collection (ATCC; Rockville, MD, USA), were cultured in McCoy’s 5a medium supplemented with 10 % heat-inactivated fetal bovine serum, 2 mM L-glutamine, 100 μg/ml streptomycin and 100 U/ml penicillin (all from Sigma-Aldrich St. Louis, MO, USA).
# The Pharmakon 1600 library (Microsource Inc, MO, USA) consists of 1,600 annotated compounds previously used in the clinical setting. The library was delivered in […] each containing 80 compounds at a concentration of 10 mM dissolved in DMSO. For the primary screening, aliquots of the DMSO solutions were transferred to 384-well Labcyte source plates (Labcyte Inc, CA, USA) using a Biomek 2000 and stored at room temperature in containers under nitrogen atmosphere. These source plates were subsequently used to deliver 10 μM (final concentration) of each drug to 384-well screening plates using a acoustic dispensing Echo 550 instrument equipped with Labcytes Access robotics (Labcyte).
# (§1) The fluorometric microculture cytotoxicity assay (FMCA), described in detail previously (Lindhagen et al. [2008]), was used for measurement of the cytotoxic effect of library compounds and the established standard drugs. The FMCA is based on measurement of fluorescence generated from hydrolysis of fluorescein diacetate (FDA) to fluorescein by cells with intact plasma membranes. Cells were seeded in 384-well plates using the pipetting robot Precision 2000 (Bio-Tek Instruments Inc, Winooski, VT) and cultured over night before drugs were added by the Echo 550 system. […] Results are expressed as survival index (SI), defined as fluorescence of experimental wells in per cent of unexposed control wells with blank values subtracted.
# Screening data were exported to Vortex (Dotmatics Inc, UK) software for analysis. […] Structural similarity to other compounds in the library was calculated based on a structural fingerprint consisting of chemical fragments located within the compound as computed by Vortex. […]
# panel of 97 kinases = assay: KINOMEscan binding assay, whole panel; conditions: for kinase binding: 10 µM, panel of 97 kinases; for Interactions Mapped / S-Score(35): 10 μM; for Interactions Mapped: 97 Assays Tested; for S-Score(35): number of non-mutant kinases with POC <35/number of non-mutant kinases tested
# Protocol: (§2) The binding affinities of ABZ and MBZ were tested at 10 μM in a high-throughput binding assay (KINOMEscan, Discoverx, CA, USA) against a panel of 97 kinases tagged with DNA (Davis et al. [2011]). Compounds that bind the kinase active site and directly or indirectly prevent kinase binding to an immobilized ligand will reduce the amount of kinase captured on solid support. […] Hits are identified by measuring the amount of kinase captured in test versus control samples by using a quantitative PCR method that detects the associated DNA label (http://www.discoverx.com/tools-resources/publications-references). Results are presented as percent of control (POC). Selectivity score (S-score) is a quantitative measure of compound selectivity. S(35) is calculated as number of non-mutant kinases with POC <35/number of non-mutant kinases tested. Binding constants were determined with the same method using 11-point threefold serial dilutions of the compound. Curves were fitted using a nonlinear least square fit with the Levenberg–Marquardt algorithm (Davis et al. [2011]).
# [2] = system: reactive oxygen species (ROS) generation; set-up: method as in Locatelli et al. [2004]; conditions: ref Locatelli et al. [2004]; cited from earlier work
# [3] = cited from earlier work
# ABL1 nonphosphorylated = molecular target: T1, ABL1 nonphosphorylated (Homo sapiens, UniProt P00519); assay: KINOMEscan binding assay
# T1 construct: purchased Discoverx (KINOMEscan service)
# Protocol: as §2
# ABL1 phosphorylated = molecular target: T2, ABL1 phosphorylated (Homo sapiens, UniProt P00519); assay: KINOMEscan binding assay
# T2 construct: purchased Discoverx (KINOMEscan service)
# Protocol: as §2
# [4] = molecular target: T3, ABL1(E255K) phosphorylated (Homo sapiens, UniProt P00519, E255K); assay: KINOMEscan binding assay
# T3 construct: purchased Discoverx (KINOMEscan service)
# Protocol: as §2
# [5] = molecular target: T4, ABL1(T315I) phosphorylated (Homo sapiens, UniProt P00519, T315I); assay: KINOMEscan binding assay
# T4 construct: purchased Discoverx (KINOMEscan service)
# Protocol: as §2
# BRAF = molecular target: T5, BRAF (Homo sapiens, UniProt P15056); assay: KINOMEscan binding assay
# T5 construct: purchased Discoverx (KINOMEscan service)
# T5 sequence (P15056 whole entry): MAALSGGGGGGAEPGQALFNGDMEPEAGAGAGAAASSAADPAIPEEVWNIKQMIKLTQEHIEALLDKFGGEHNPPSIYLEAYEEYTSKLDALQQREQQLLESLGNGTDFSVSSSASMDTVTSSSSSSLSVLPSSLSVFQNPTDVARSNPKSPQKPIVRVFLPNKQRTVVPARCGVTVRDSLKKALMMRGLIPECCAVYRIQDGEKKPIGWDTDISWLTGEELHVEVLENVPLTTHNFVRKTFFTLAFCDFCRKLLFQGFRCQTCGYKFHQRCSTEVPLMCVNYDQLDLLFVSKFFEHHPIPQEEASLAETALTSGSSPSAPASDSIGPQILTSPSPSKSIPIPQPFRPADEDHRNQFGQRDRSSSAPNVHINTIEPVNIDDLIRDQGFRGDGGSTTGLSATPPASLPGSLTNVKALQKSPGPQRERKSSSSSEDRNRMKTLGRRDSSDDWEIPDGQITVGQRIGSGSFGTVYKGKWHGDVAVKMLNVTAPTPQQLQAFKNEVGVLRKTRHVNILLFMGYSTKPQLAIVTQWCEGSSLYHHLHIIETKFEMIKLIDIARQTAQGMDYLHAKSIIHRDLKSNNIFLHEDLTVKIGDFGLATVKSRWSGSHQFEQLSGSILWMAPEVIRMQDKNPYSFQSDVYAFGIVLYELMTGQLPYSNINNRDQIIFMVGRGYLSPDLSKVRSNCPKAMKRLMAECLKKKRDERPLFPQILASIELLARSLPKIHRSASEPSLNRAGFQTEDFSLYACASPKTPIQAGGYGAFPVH
# Protocol: as §2
# BRAF(V600E) = molecular target: T6, BRAF(V600E) (Homo sapiens, UniProt P15056, V600E); assay: KINOMEscan binding assay
# T6 construct: purchased Discoverx (KINOMEscan service)
# T6 sequence (P15056 whole entry V600E): as the sequence (P15056 whole entry) above, with V600E counted along it
# Protocol: as §2
# JNK3 = molecular target: T7, JNK3 (Homo sapiens, UniProt P53779); assay: KINOMEscan binding assay
# T7 construct: purchased Discoverx (KINOMEscan service)
# T7 sequence (P53779 whole entry): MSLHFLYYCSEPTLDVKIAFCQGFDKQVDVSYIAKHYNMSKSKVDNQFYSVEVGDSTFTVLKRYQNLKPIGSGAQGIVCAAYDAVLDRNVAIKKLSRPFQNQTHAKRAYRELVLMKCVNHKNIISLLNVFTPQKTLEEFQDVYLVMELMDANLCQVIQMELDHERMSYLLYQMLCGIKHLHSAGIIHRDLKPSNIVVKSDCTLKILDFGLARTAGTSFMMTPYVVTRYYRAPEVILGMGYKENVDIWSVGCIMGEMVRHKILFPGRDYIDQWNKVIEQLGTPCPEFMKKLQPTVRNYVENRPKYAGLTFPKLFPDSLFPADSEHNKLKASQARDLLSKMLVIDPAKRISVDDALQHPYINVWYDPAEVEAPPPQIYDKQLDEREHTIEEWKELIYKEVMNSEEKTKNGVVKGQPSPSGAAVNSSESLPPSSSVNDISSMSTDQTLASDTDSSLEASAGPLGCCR
# Protocol: as §2
# KIT = molecular target: T8, KIT (Homo sapiens, UniProt P10721); assay: KINOMEscan binding assay
# T8 construct: purchased Discoverx (KINOMEscan service)
# T8 sequence (P10721 26-976): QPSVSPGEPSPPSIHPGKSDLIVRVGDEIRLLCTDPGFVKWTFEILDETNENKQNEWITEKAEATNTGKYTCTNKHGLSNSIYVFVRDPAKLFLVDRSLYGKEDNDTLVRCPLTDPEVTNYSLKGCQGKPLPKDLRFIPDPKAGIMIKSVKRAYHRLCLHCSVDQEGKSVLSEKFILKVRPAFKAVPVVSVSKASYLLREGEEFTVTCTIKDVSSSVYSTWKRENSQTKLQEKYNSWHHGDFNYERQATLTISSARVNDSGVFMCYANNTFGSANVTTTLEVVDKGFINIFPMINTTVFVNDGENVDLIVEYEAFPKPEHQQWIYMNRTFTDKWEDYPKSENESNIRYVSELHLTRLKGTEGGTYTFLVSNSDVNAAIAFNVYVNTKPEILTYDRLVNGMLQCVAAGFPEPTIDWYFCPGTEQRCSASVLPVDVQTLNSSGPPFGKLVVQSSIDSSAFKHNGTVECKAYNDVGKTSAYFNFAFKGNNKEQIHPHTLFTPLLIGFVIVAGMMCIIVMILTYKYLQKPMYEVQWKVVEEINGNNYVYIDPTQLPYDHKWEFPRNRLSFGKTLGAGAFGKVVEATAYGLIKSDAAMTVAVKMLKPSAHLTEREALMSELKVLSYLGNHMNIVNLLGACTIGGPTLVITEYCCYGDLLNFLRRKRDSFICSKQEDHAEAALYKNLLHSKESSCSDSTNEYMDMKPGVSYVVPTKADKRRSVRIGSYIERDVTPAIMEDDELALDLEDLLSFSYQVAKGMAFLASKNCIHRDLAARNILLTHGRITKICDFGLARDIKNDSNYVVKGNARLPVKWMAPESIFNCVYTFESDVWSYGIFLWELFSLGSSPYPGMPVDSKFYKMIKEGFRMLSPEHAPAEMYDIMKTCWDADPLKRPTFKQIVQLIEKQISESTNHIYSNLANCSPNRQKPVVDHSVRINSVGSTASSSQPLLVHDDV
# Protocol: as §2
# PDGFRA = molecular target: T9, PDGFRA (Homo sapiens, UniProt P16234); assay: KINOMEscan binding assay
# T9 construct: purchased Discoverx (KINOMEscan service)
# T9 sequence (P16234 24-1089): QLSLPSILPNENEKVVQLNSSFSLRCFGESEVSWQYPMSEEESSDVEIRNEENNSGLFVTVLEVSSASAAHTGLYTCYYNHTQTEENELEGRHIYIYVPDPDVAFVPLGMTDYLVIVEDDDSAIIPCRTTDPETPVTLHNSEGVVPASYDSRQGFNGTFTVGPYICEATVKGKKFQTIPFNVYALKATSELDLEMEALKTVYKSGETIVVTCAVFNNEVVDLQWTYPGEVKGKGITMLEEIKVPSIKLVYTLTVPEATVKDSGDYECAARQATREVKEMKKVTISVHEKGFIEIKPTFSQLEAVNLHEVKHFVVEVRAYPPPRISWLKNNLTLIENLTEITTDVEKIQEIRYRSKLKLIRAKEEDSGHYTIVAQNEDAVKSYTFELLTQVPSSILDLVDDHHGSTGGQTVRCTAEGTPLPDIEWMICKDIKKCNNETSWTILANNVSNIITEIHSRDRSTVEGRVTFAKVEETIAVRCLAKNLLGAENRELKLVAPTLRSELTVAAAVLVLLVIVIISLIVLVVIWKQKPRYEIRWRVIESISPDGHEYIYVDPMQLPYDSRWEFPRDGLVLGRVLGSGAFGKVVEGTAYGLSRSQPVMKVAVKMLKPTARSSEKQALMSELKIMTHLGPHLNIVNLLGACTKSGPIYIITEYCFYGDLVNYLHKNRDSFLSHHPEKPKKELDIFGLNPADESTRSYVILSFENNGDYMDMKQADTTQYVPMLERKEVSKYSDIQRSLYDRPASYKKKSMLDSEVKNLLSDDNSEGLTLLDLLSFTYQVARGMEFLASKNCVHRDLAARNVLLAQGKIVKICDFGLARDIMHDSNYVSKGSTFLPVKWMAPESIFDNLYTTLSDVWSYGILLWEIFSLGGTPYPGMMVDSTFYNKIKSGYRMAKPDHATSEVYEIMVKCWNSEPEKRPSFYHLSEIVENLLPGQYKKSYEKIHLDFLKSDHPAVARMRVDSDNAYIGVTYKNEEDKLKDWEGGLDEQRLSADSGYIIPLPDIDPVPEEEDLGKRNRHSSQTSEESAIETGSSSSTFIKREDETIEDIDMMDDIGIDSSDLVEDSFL
# Protocol: as §2
# PDGFRB = molecular target: T10, PDGFRB (Homo sapiens, UniProt P09619); assay: KINOMEscan binding assay
# T10 construct: purchased Discoverx (KINOMEscan service)
# T10 sequence (P09619 33-1106): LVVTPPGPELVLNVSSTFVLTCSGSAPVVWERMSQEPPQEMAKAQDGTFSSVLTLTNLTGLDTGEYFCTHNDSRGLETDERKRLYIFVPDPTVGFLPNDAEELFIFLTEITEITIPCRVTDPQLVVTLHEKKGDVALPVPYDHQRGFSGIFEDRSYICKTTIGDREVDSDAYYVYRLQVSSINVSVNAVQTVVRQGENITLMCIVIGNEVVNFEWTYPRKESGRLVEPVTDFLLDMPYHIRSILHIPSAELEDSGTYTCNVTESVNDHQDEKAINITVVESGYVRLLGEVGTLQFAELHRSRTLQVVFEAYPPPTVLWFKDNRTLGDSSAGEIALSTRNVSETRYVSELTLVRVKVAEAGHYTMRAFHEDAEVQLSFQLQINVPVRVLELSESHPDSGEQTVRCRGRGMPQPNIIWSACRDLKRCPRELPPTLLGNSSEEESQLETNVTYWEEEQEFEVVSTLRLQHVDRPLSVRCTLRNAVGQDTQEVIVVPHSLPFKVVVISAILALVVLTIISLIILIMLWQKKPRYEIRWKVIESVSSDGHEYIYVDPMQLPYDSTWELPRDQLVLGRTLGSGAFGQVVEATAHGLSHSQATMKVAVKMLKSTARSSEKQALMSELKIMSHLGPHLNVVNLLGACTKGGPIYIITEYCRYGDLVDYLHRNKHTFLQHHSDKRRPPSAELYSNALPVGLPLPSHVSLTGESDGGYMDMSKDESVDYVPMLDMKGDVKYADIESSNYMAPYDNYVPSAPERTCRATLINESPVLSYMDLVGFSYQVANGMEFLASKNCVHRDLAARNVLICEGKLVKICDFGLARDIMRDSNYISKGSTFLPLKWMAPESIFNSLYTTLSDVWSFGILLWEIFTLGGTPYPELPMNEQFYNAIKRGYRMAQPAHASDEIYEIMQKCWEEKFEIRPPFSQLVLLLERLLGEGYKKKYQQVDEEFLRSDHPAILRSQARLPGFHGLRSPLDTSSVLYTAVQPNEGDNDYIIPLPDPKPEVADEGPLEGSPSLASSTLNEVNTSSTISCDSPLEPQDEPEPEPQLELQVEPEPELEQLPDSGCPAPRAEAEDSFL
# Protocol: as §2
# [6] = system: colon cancer cell lines (HCT 116, RKO, HT29, HT-8 and SW626); assay: FMCA concentration-response, colon cancer cell lines; type: cell-based; conditions: Homo sapiens; all 5 colon cancer cell lines; 72 h FMCA
# Protocol: The colon cancer cell lines HT29, HT-8 and SW626 and the normal phenotype non-malignant epithelial MCF 10A, renal RPTEC/TERT1 and hepatocyte NeHepLxHT cell lines were used for validation experiments. These cell lines were all obtained from ATCC and cultured according to the protocols provided by the supplier. All the cell lines were cultured at 37 °C in a humidified atmosphere containing 5 % CO2.
# For dose–response studies, Labcyte source plates and the Echo dispenser were used in a similar manner to deliver different concentrations of each drug to destination plates using on board software protocols (Labcyte).
# as §1, with “membranes.” for “membranes. Cells were seeded in 384-well plates using the pipetting robot Precision 2000 (Bio-Tek Instruments Inc, Winooski, VT) and cultured over night before drugs were added by the Echo 550 system.”
# Concentration–response data of screening hits and standard agents were analyzed using the software GraphPad Prism4 (GraphPad Software Inc., San Diego, CA, USA). […]
# NCI 60 cell line panel [7] = assay: NCI 60 growth inhibitory screen data mining (Cellminer); type: cell-based
# Protocol: Analysis of data from the National Cancer Institute growth inhibitory screen in 60 cell lines (NCI 60 GI 50 data) was performed with the help by the NCI Cellminer database (http://discover.nci.nih.gov/cellminer/). Z scores are determined for each experiment/cell line pair by the subtraction from its intensity by the experiment mean (across the 60 cell lines) and division by the standard deviation of the experiment (across the 60 cell lines). The z score average was then calculated as the mean across all experiments that passed quality control criteria. The z score will have a mean of zero and a standard deviation of one.
# NCI 60 cell line panel [8] = system: NCI 60 cell line panel; set-up: method as in NCI Cellminer database; conditions: NCI 60 panel; ref NCI Cellminer database; read-out: average GI 50 over the panel; cited from earlier work
# [9] = system: refractory metastatic colon cancer; set-up: method as in case report accepted for publication in Acta Oncologica; conditions: 100 mg twice daily, ref case report accepted for publication in Acta Oncologica, cited from earlier work
# glioma = system: glioma; set-up: method as in Bai et al. [2011]; conditions: two orthotopic mouse models of glioma; ref Bai et al. [2011]; cited from earlier work
# [10] = system: protein kinases including Bcr–Abl; set-up: method as in Park et al. [2012]; conditions: ref Park et al. [2012]; cited from earlier work
# [11] = percent of control at 10 μM, read-out: POC (10 μM)
smiles,measurement,setting,value
"CCCOc1ccc2nc(NC(=O)OC)[nH]c2c1 [Oxibendazole, oxibendazole]",survival index (SI),[1],lowest SIs
CCCSc1ccc2nc(NC(=O)OC)[nH]c2c1 [albendazole],kinase binding,panel of 97 kinases,no kinase binding was observed
same,Interactions Mapped,panel of 97 kinases,1
same,S-Score(35),panel of 97 kinases,0
same,survival index (SI),[1],closely followed
same,ROS generation,[2],strong reactive oxygen species (ROS) generation
same,dose-limiting toxicity,"[3]; dose-escalating phase-I trial, ref Pourgholami et al. [2010]",neutropenia
same,toxicity in clinical study,"[3]; patients with advanced cancers, ref Morris et al. [2001]",neutropenia
COC(=O)Nc1nc2ccc(Sc3ccccc3)cc2[nH]1 [fenbendazole],survival index (SI),[1],closely followed
COC(=O)Nc1nc2ccc(C(=O)c3ccccc3)cc2[nH]1 [mebendazole],Kd,ABL1 nonphosphorylated; average of two determinations,550 nM
same,remaining binding at 10 µM,ABL1 nonphosphorylated; [11],2.4%
same,Kd,ABL1 phosphorylated; average of two determinations,130 nM
same,remaining binding at 10 µM,ABL1 phosphorylated; [11],0.95%
same,Kd,[4]; average of two determinations,78 nM
same,remaining binding at 10 µM,[4]; [11],0.3%
same,Kd,[5]; average of two determinations,170 nM
same,remaining binding at 10 µM,[5]; [11],4.8%
same,Kd,BRAF; average of two determinations,190 nM
same,remaining binding at 10 µM,BRAF; [11],13%
same,Kd,BRAF(V600E); average of two determinations,250 nM
same,remaining binding at 10 µM,BRAF(V600E); [11],5.1%
same,Kd,JNK3; average of two determinations,420 nM
same,remaining binding at 10 µM,JNK3; [11],5.2%
same,Kd,KIT; average of two determinations,460 nM
same,remaining binding at 10 µM,KIT; [11],2.9%
same,Kd,PDGFRA; average of two determinations,340 nM
same,remaining binding at 10 µM,PDGFRA; [11],15%
same,Kd,PDGFRB; average of two determinations,560 nM
same,remaining binding at 10 µM,PDGFRB; [11],2.3%
same,kinase binding,panel of 97 kinases,potent inhibitor of several kinases with high affinity
same,Interactions Mapped,panel of 97 kinases,20
same,S-Score(35),panel of 97 kinases,0.19
same,IC50,[6],< 5000 nM
same,frequency of sensitive cell lines (positive z scores),NCI 60 cell line panel [7]; colon cancer cell lines of NCI 60,80%
same,frequency of sensitive cell lines (positive z scores),NCI 60 cell line panel [7]; lung cancer subpanel of NCI 60,25%
same,frequency of sensitive cell lines (positive z scores),NCI 60 cell line panel [7]; renal cancer subpanel of NCI 60,28%
same,GI50,NCI 60 cell line panel [8],460 nM
same,"computerized tomography evaluation, liver",[9]; after six weeks of therapy,good partial remission
same,"computerized tomography evaluation, metastases in the lungs and lymph nodes",[9]; after six weeks of therapy,near complete remission
same,adverse effects,[9],no subjective adverse effects at all
same,survival,glioma,significantly increase survival
COC(=O)Nc1nc2ccc(C(=O)c3cccs3)cc2[nH]1 [nocodazole],protein kinase inhibition,[10],inhibit several protein kinases including Bcr–Abl
